Source: paper PMC10313368 (The Journal of Clinical Investigation, 2023)

Experiments:
[1] = tested on: retinal ganglion cells (RGCs); test: Retinal histology (H&E), RBPMS staining and quantitation of RGCs, ONL/INL thickness after intraocular injection; format: in vivo, mouse
HUVECs = test: mRNA angiogenesis array (TaqMan Array qPCR) in HUVECs; format: cell-based, human; parameters: ANG,RNASE4, array raw value (Figure 8B, well A10) / GAPDH, array raw value (Figure 8B, well A2) / EDIL3, array raw value (Figure 8B, well B2) / FGF1, array raw value (Figure 8B, well B4) / TIMP2, array raw value (Figure 8B, well E10) / SEMA3F, array raw value (Figure 8B, well E6) / CEACAM1, array raw value (Figure 8B, well F2) / LYVE1, array raw value (Figure 8B, well F6): scale not given here
Description: Angiogenesis array. Total RNA was isolated from MIO-MI cells (8 hours) and HUVECs (16 […]
cDNA was prepared with QuantiTect® Reverse Transcription Kit (Qiagen, Cat# 205311). RT-qPCR assay was performed with pre-configured TaqMan Array 96-Well FAST Plate for human angiogenic gene expression (Applied Biosystems, Inc) following the manufacture’s protocol. Each plate contains pre-defined genes including 18S, GAPDH and HPRT1 endogenous controls.
TaqMan Array plates were prepared by loading on each well 5 μl of cDNA sample (30 ng) with nuclease-free water and 5 μl of TaqMan™ Fast Advanced Master Mix (Applied Biosystem, Cat# […]
4444554). The reaction was performed using the QuantStudio™ 3 Flex Real‐Time PCR System as follows: 2 minutes at 50°C (stage 1); 10 minutes at 95°C (stage 2); 15 seconds at 95°C and 1 minutes at 60°C for 40 cycles (stage 3). The data were analyzed by using HPRT1 as endogenous […]
The clustering heatmaps were produced with “pheatmap” library in R with scale = row and clustering method = complete.
HUVEC cells, Euclidean distance was used to quantify the difference in qPCR screening. The Euclidean distance was calculated using “dist” function from R’s default stat library that measures the distance between 2 vectors (i.e., total qPCR expression values in control and treatment). In […]

HIF-2α = HIF-2α (Homo sapiens, UniProt Q99814); test: Immunoblot of HIF-2α accumulation in D120 hiPSC-derived retinal organoids in 1% O2; format: cell-based; parameters: endogenous in cells; conditions: 1% O2 12 hours, 32-134D
Chain of HIF-2α (Q99814 whole entry): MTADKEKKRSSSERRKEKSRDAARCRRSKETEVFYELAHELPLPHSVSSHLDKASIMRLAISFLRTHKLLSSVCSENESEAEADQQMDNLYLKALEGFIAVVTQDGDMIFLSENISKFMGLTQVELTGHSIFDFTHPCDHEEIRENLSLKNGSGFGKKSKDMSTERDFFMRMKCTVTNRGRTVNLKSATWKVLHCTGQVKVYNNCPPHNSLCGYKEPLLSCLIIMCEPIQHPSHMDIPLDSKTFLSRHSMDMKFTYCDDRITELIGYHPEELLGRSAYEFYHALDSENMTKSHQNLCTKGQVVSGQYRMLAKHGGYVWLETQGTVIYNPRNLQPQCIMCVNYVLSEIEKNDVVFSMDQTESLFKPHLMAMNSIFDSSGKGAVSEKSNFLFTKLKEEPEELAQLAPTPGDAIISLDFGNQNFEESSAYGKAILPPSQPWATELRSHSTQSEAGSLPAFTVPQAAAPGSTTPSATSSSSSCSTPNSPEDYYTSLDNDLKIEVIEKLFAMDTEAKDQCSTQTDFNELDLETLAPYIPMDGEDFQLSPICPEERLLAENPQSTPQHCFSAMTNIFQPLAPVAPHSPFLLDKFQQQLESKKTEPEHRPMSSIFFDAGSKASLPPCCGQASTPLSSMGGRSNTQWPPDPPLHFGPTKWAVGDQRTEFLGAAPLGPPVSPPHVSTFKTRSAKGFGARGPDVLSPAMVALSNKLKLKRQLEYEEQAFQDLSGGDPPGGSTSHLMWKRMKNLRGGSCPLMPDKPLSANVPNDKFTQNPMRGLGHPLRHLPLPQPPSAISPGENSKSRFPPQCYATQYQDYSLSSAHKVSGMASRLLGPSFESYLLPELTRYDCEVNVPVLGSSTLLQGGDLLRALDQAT
Description: An hiPSC line derived from CD34^+ cord blood was used in this study (A18945, Thermo Fisher Scientific) ([70]). Undifferentiated hiPSCs and derived retinal organoids were routinely tested for mycoplasma contamination by PCR. Cell culture, retinal differentiation, and organoid formation were conducted as previously described ([71]). Retinal organoids at D120 were used for experiments.
Immunoblot assays. Cells, neurosensory retina, and D120 retinal organoid lysates were subjected
to 4–15% gradient SDS/PAGE (Invitrogen). Immunoblot (Western blot or WB) assays were
performed as previously described (1). […]

## Brc1ccc2c(-c3csc(-c4c[nH]c5c(Br)cccc45)n3)c[nH]c2c1 [32-134D, 4-(6-bromo-1H-indol-3-yl)-2-(7-bromo-1H-indol-3-yl)thiazole]
[1]; 32-134D 210 or 350 ng intraocular, 35 days
  retinal histology including GCL: normal histology
[1]; 32-134D at the highest doses tested, 35 days
  number of RGCs on retinal flat mounts (in words): unaffected
[1]; 32-134D single dose 350 ng, 5 weeks
  ONL or INL thickness versus vehicle (in words): failed to demonstrate any changes
[1]; 32-134D, mice
  therapeutic window following intraocular administration: wide therapeutic window
HUVECs; HUVEC, 1%O2+32-134D
  18S, array raw value (Figure 8B, well A1): 20.1818
  ADAMTS1, array raw value (Figure 8B, well D10): 29.7994
  AMOT, array raw value (Figure 8B, well D12): 39.0386
  ANG,RNASE4, array raw value (Figure 8B, well A10): 28.1406
  ANGPT1, array raw value (Figure 8B, well A11): 30.8384
  ANGPT2, array raw value (Figure 8B, well A12): 32.8047
  ANGPTL2, array raw value (Figure 8B, well E12): 30.2341
  ANGPTL4, array raw value (Figure 8B, well H5): 21.86
  CD44, array raw value (Figure 8B, well E1): 23.3811
  CDH5, array raw value (Figure 8B, well E2): 24.9237
  CEACAM1, array raw value (Figure 8B, well F2): 29.9396
  COL4A1, array raw value (Figure 8B, well G2): 30.6479
  COL4A2, array raw value (Figure 8B, well G3): 28.7346
  COL18A1, array raw value (Figure 8B, well G6): 29.7073
  CSF3, array raw value (Figure 8B, well H1): 33.4203
  CTGF, array raw value (Figure 8B, well C10): 23.3834
  CXCL2, array raw value (Figure 8B, well E3): 30.6168
  CXCL10, array raw value (Figure 8B, well D5): 36.21
  EDIL3, array raw value (Figure 8B, well B2): 26.4682
  EPHB2, array raw value (Figure 8B, well B3): 28.307
  FGF1, array raw value (Figure 8B, well B4): 29.8889
  FGF2, array raw value (Figure 8B, well B5): 30.0294
  FIGF, array raw value (Figure 8B, well F12): 33.3841
  FLT1, array raw value (Figure 8B, well E5): 30.21
  FN1, array raw value (Figure 8B, well G7): 28.5669
  FOXC2, array raw value (Figure 8B, well G1): 27.8513
  FST, array raw value (Figure 8B, well B7): 31.5936
  GAPDH, array raw value (Figure 8B, well A2): 20.3521
  GRN, array raw value (Figure 8B, well H2): 22.2393
  GUSB, array raw value (Figure 8B, well A4): 25.0498
  HEY1, array raw value (Figure 8B, well F3): 34.3049
  HPRT1, array raw value (Figure 8B, well A3): 25.0367
  HSPG2, array raw value (Figure 8B, well G5): 27.52
  IFNB1, array raw value (Figure 8B, well D3): 35.432
  IL8, array raw value (Figure 8B, well B9): 26.4133
  IL12A, array raw value (Figure 8B, well D6): 34.4259
  ITGA4, array raw value (Figure 8B, well D2): 28.3072
  ITGAV, array raw value (Figure 8B, well F4): 26.1181
  ITGB3, array raw value (Figure 8B, well H6): 25.3974
  KDR, array raw value (Figure 8B, well F10): 30.1984
  LYVE1, array raw value (Figure 8B, well F6): 34.6146
  MDK, array raw value (Figure 8B, well B11): 23.8862
  MMP2, array raw value (Figure 8B, well A9): 21.2904
  NRP1, array raw value (Figure 8B, well H10): 28.4453
  NRP2, array raw value (Figure 8B, well F9): 25.1088
  PDGFB, array raw value (Figure 8B, well C1): 28.0672
  PECAM1, array raw value (Figure 8B, well F5): 23.24
  PF4, array raw value (Figure 8B, well D8): 38.4479
  PLG, array raw value (Figure 8B, well A6): 36.8052
  PROX1, array raw value (Figure 8B, well H12): 31.6234
  PTN, array raw value (Figure 8B, well C2): 36.9532
  S1PR1, array raw value (Figure 8B, well H11): 25.2945
  SEMA3F, array raw value (Figure 8B, well E6): 31.8531
  SERPINB5, array raw value (Figure 8B, well E4): 36.9759
  SERPINC1, array raw value (Figure 8B, well A7): 34.8884
  SERPINF1, array raw value (Figure 8B, well D7): 37.5691
  TEK, array raw value (Figure 8B, well E7): 27.2772
  TGFA, array raw value (Figure 8B, well C4): 29.7382
  TGFB1, array raw value (Figure 8B, well C5): 24.01
  THBS1, array raw value (Figure 8B, well C12): 23.1291
  TIE1, array raw value (Figure 8B, well E8): 30.7653
  TIMP2, array raw value (Figure 8B, well E10): 25.4299
  TIMP3, array raw value (Figure 8B, well E11): 25.8838
  TNFSF15, array raw value (Figure 8B, well D1): 25.7168
  TNMD, array raw value (Figure 8B, well E9): 37.1045
  TYMP, array raw value (Figure 8B, well B12): 39.1978
  VASH1, array raw value (Figure 8B, well D9): 30.8647
  VEGFA, array raw value (Figure 8B, well C7): 30.4927
  VEGFB, array raw value (Figure 8B, well C8): 27.5522
  VEGFC, array raw value (Figure 8B, well C9): 27.3225
HUVECs; HUVEC, Hy+32-134D, Normal = 1
  ANGPTL4 mRNA (angiogenesis array, Figure 8C): 35.2355
  COL4A1 mRNA (angiogenesis array, Figure 8C): 3.543
  COL4A2 mRNA (angiogenesis array, Figure 8C): 2.168
  CTGF mRNA (angiogenesis array, Figure 8C): 3.12
  EPHB2 mRNA (angiogenesis array, Figure 8C): 2.119
  HSPG2 mRNA (angiogenesis array, Figure 8C): 1.339
  ITGB3 mRNA (angiogenesis array, Figure 8C): 3.6621
  MMP2 mRNA (angiogenesis array, Figure 8C): 3.052
  PDGFB mRNA (angiogenesis array, Figure 8C): 2.63
  PROX1 mRNA (angiogenesis array, Figure 8C): 2.021
  TGFA mRNA (angiogenesis array, Figure 8C): 2.2277
  TGFB1 mRNA (angiogenesis array, Figure 8C): 1.578
  TNMD mRNA (angiogenesis array, Figure 8C): 1.388
  VEGFA mRNA (angiogenesis array, Figure 8C): 4.067
  VEGFC mRNA (angiogenesis array, Figure 8C): 3.879
HUVECs; HUVECs, from 209 to 35
  reduction in the Euclidean distance between control and hypoxic cell angiogenic gene expression: 83%
HIF-2α
  accumulation of HIF-2α protein: effectively prevented accumulation
